In patent US20120053184A1, “SALTS OF 3-(1H-IND0L-3-YL)-4-[2-(4-METHYL-PIPERAZIN-I-YL)-QUINAZOLIN-4-YL]-PYRROLE-2, 5-DI ONE” (priority 2007, published 2012):

Assays:
[1] = stability in the solid state (heat, heat/humidity, light); format: physicochemical; settings: after one week at 80° C. in a close container, or at 80° C./75% r.h. in open container, or upon exposure to light (1200 kLux, 300-800 nm)
Description: Criteria for selecting the salts of the invention include i) dissolution in water, with measurement of degradation products, and decoloration, ii) stability against heat in solid state, iii) exposure to light (e.g. Xenon light), iv) corosivity to steel.

[2] = solubility in aqueous media; format: physicochemical
Description: Therefore it is not straightforward or easy to formulate it into pharmaceutical compositions, e.g. for oral administration.

CN1CCN(c2nc(C3=C(c4c[nH]c5ccccc45)C(=O)NC3=O)c3ccccc3n2)CC1.CS(=O)(=O)O [mesylate salt, Mesylate Salt of 3-(1.H.-indol-3-yl)-4-[2-(4-methyl-piperazin-1-yl)-quinazolin-4-yl]-pyrrole-2,5-dione]
stability in the solid state [1]: very good stability

CN1CCN(c2nc(C3=C(c4c[nH]c5ccccc45)C(=O)NC3=O)c3ccccc3n2)CC1.O=C(O)/C=C\C(=O)O [maleate, Maleate Salt of 3-(1.H.-indol-3-yl)-4-[2-(4-methyl-piperazin-1-yl)-quinazolin-4-yl]-pyrrole-2,5-dione]
stability in the solid state [1]: very good stability

CN1CCN(c2nc(C3=C(c4c[nH]c5ccccc45)C(=O)NC3=O)c3ccccc3n2)CC1 [free base, 3-(1.H.-indol-3-yl)-4-[2-(4-methyl-piperazin-1-yl)-quinazolin-4-yl]-pyrrole-2,5-dione]
solubility in aqueous media [2]: relatively low solubility
